Source: patent US8501166B2, “Pyrimidinyl indole compounds” (Hutchison Medipharma Limited, priority 2010, dated 2013)
Counter-ions that a name gives are not always drawn.

How the values were obtained:
[1] = test system: LPS-induced plasma IL-1β production; assay: LPS-induced plasma cytokine production in mouse, IL-1β; type: in vivo, Balb/c mice; settings: even at the dose of 100 mg/kg
Protocol: Alternately, the compound is screened for its ability to inhibit the LPS-induced cytokine production in rat plasma according to the method reported in the literature (Ziegelbauer K, Gantner F, Lukacs N W, et al. Br J. Pharmacol. 2005,145(2):178-92). Briefly, Lewis rats (male, body weight 140 g-180 g) are used in the experiments. Animals (8/group) are given 1 to 100 mg/kg of the testing compound (suspension in 35% solutol & 60% PEG400 & 5% PG) or vehicle by oral gavage at 1 h prior to intraperitoneal administration of LPS 0.4 mg/kg. Ninety minutes after the intraperitoneal administration of LPS, blood is collected in heparin anticoagulated tubes to measure TNFα using R&D System ELISA Kit based on the general Kit protocols. The plasma sample is diluted 100 fold with the dilution buffer and 50 μL of diluted sample is used in each measurement. The plate is read on a SPECTRAMAX® M2e Plus Plate Reader and TNFα levels are analyzed based on the standard curve. The drug levels in plasma are measured with LC-MS-MS. […] Alternately, the compound is screened for its ability to inhibit the LPS-induced cytokine production in mouse plasma. Balb/c mice (female, body weight 18-20 g) are used in the experiments. […] The plate is read on a SPECTRMAX® M2e Plus Plate Reader and the data is analyzed using a standard curve.

[2] = biological target: T1, IKKβ (Homo sapiens, UniProt O14920); assay: IKKβ kinase assay (IKKβ-Inhibitor Screening Kit, ELISA); type: biochemical; settings: IKKβ-Inhibitor Screening Kit (Calbiochem), GST-IκBα substrate
T1 sequence (O14920 1-756): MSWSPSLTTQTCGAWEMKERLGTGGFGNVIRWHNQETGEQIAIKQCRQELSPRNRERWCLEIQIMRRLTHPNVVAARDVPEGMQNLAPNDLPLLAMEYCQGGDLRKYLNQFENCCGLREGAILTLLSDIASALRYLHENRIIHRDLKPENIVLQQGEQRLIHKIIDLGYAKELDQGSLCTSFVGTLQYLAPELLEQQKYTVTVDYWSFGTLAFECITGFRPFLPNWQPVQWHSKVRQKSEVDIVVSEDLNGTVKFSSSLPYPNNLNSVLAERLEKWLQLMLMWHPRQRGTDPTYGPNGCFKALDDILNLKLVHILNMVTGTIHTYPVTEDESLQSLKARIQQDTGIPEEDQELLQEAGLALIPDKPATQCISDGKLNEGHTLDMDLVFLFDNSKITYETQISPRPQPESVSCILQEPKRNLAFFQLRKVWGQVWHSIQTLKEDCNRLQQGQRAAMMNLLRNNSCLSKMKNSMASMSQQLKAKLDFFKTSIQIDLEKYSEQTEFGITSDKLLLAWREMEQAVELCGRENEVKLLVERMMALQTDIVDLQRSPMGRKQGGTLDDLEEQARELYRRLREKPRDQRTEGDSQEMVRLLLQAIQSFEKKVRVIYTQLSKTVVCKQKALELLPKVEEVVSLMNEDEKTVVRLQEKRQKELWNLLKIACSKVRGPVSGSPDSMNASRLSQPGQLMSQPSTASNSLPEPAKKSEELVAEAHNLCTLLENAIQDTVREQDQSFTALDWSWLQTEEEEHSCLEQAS
Protocol: The IKKβ kinase assay is used to assess the effect of a compound of the present invention on the enzymatic activity of IKKβ kinase. The IKKβ kinase assay is performed in vitro using an IKKβ-Inhibitor Screening Kit (Calbiochem., Cat.No. CBA044). All reactions (50 μL) are started by adding 10 μL of kinase buffer (kit component, No. JA9130), 10 μL of GST-IKBa substrate (IKKb substrate, kit component, No. JA9127), 10 μL of IKKβ (2.5 ng/well, kit component, No. 481404), 10 μL of the test compound (DMSO solution) or H2O, and 10 μL of ATP/MgCl2 (kit component, No. JA7914) and then incubating at 30° C. for 30 min. The contents of the wells are then discarded. Each well is washed 3 times with 200 μL 1× wash buffer (kit component, NO. JA1617, 1:20 dilution). 100 μL of anti-phospho IκBα (Ser^32/Ser^36) antibody conjugate (kit component, No. JA9126) is added to each well and incubated at room temperature for 1 h. Then the wells are washed 3 times with 1× wash buffer (kit component, NO. JA1617, 1:20 dilution), […] and 100 μL HRP-conjugate (kit component, No. JA7643) is added to each well and incubated at room temperature for 1 h. Then the wells are washed 3 times with 200 μL 1× wash buffer (kit component, NO. JA1617, 1:20 dilution) and 100 μL TMB substrate conjugate (kit component, No. JA1608) is added to each well. The plate is incubated at room temperature until the color changes. […]

Row | IC50 [2] [nM] | SMILES | effect on IL-1β production [1]
1 | – | Cl.O=C(NC1CC1)c1cccc2[nH]c(-c3nc(N[C@@H]4CCC[C@H]4O)ncc3Cl)cc12 [Example 2, 2-{5-Chloro-2-[(1R,2R)-2-hydroxycyclopentylamino]pyrimidin-4-yl}-N-cyclopropyl-1H-indole-4-carboxamide hydrochloride] | no effect was observed
2 | 15 | O=C(NC1CC1)c1cccc2[nH]c(-c3nc(N[C@@H]4CCC[C@@H]4O)ncc3Cl)cc12 [Example 1, 2-{5-Chloro-2-[(1R,2S)-2-hydroxycyclopentylamino]pyrimidin-4-yl}-N-cyclopropyl-1H-indole-4-carboxamide hydrochloride] | –
